Measurements taken from ChEMBL document CHEMBL3112516, “Design, synthesis and biological evaluation of novel peptide MC62 analogues as potential antihyperglycemic agents” (2014).
Calls of active or inactive are those of the source. The rule behind the calls is not given here.

How the values were obtained:
[1] = system: Mus musculus; experiment: Antihyperglycemic activity in overnight fasted STZ-induced diabetic mouse model assessed as blood glucose level at 1 umol/kg, ip qd administered for 20 days measured after 20 days relative to control; format: functional
[2] = system: Mus musculus; experiment: Antihyperglycemic activity in STZ-induced mouse model assessed as decrease in water intake at 1 umol/kg, ip administered for 20 days measured every 5 days up to 20 days; format: functional, organism-based
[3] = system: Mus musculus; experiment: Antihyperglycemic activity in overnight fasted STZ-induced mouse model assessed as reduction of fasting blood glucose level at 1 umol/kg, ip administered for 20 days measured every 5 days up to 20 days; format: functional, organism-based
[4] = system: Mus musculus; experiment: Antihyperglycemic activity in overnight fasted STZ-induced mouse model assessed as decrease in glycated hemoglobin level at 1 umol/kg, ip administered for 20 days measured on day 21; format: functional, organism-based
[5] = system: Mus musculus; experiment: Antioxidant activity in STZ-induced mouse model assessed as GSH level at 1 umol/kg, ip administered for 20 days measured on day 21 (reference value: 8.13 +/- 0.13 mg/ml); format: functional
[6] = system: Mus musculus; experiment: Antioxidant activity in STZ-induced mouse model assessed as SOD level at 1 umol/kg, ip administered for 20 days measured on day 21 (reference value: 41.58 +/- 2.89 U/ml); format: functional
[7] = system: Mus musculus; experiment: Antihyperglycemic activity in STZ-induced mouse model assessed as decrease in body weight at 1 umol/kg, ip administered for 20 days measured every 5 days up to 20 days; format: functional, organism-based
[8] = system: Mus musculus; experiment: Antihyperglycemic activity in STZ-induced mouse model assessed as increase in islet number at 1 umol/kg, ip by hematoxylin and eosin staining technique; format: functional, organism-based
[9] = system: Mus musculus; experiment: Antioxidant activity in STZ-induced mouse model assessed as GSH-PX level at 1 umol/kg, ip administered for 20 days measured on day 21 (reference value: 1449.23 +/- 49.42 U/ml); format: functional
[10] = system: Mus musculus; experiment: Antihyperglycemic activity in mouse assessed as decrease in blood glucose level at 1 umol/kg, ip pretreated with compound followed by glucose challenge measured after 30 to 60 mins by oral glucose tolerance test; format: functional, organism-based
[11] = system: Mus musculus; experiment: Antioxidant activity in STZ-induced mouse model assessed as MDA level at 1 umol/kg, ip administered for 20 days measured on day 21 (reference value: 12.49 +/- 1.35 nmol/ml); format: functional
[12] = system: Mus musculus; experiment: Antihyperglycemic activity in STZ-induced mouse model assessed as decrease in food intake at 1 umol/kg, ip administered for 20 days measured every 5 days up to 20 days; format: functional, organism-based
[13] = system: MIN6; experiment: Inhibition of H202-induced apoptosis in mouse MIN6 cells assessed as change in nuclear fragmentation at 10 nM preincubated for 24 hrs followed by H202 challenge measured after 1 hr by Hoechst 33342 staining-based microscopic analysis; format: functional, cell-based
[14] = system: MIN6; experiment: Inhibition of palmitate-induced apoptosis in mouse MIN6 cells assessed as reduction of apoptotic cells at 10 nM preincubated for 24 hrs followed by palmitate challenge measured after 1 hr by Hoechst 33342 staining-based microscopic analysis; format: functional, cell-based

| Substance | Activity [1] [mmol/L] | further results |
| --- | --- | --- |
| H-GTNMKHMAGAA-OH | 15.26 |  |
| H-KGNMKHMAGAA-OH | 15.28 |  |
| H-KMNMKGMAGAA-OH | 13.44 |  |
| H-KTGMKHMAGAA-OH | 14.36 |  |
| H-KTMMKGMAGAA-OH | 11.8 | Activity [2]: Active; Activity [3]: Active; Activity [4]: Active; Activity [5]: 12.14 mg/mL; Activity [6]: 46.96 U/ml; Activity [7]: Active; Activity [8]: Active; Activity [9]: 1707.69 U/ml; Activity [10]: Active; Activity [11]: 7.61 nmol/mL; Activity [12]: Active; Activity [13]: Active; Activity [14]: Active |
| H-KTNGKHMAGAA-OH | 18.34 |  |
| H-KTNMGHMAGAA-OH | 18.52 |  |
| H-KTNMKGMAGAA-OH | 13.29 |  |
| H-KTNMKGMAGAM-OH | 20.18 |  |
| H-KTNMKGMAGMA-OH | 17.38 |  |
| H-KTNMKGMAMAA-OH | 14.03 |  |
| H-KTNMKHGAGAA-OH | 21.82 |  |
| H-KTNMKHMAGAA-OH | 16.16 |  |
| H-KTNMKHMGGAA-OH | 18.02 |  |
| H-MTNMKGMAGAA-OH | 20.83 |  |
